Reference: patent US6693216B2, “Calcium double salts” (Nutrinova Nutrition Specialties & Food Ingredients GmbH, priority 2000, dated 2004)
Read-outs that look alike come from different tables or passages of the source.

What was measured:
Gram-negative bacteria = settings: Part II; for Number of surviving microorganisms per g of contaminated sample, Gram-negative bacteria: 1 g/l in apple juice pH 4.5, 25° C.
Molds II = settings: Part II, 1 g/l in apple juice pH 4.5, 25° C.
Bacilli = settings: Part II, 1 g/l in apple juice pH 4.5, 25° C.
Gram-positive bacteria = settings: Part II, 1 g/l in apple juice pH 4.5, 25° C.
Yeasts = settings: Part II, 1 g/l in apple juice pH 4.5, 25° C.
Molds I = settings: Part II, 1 g/l in apple juice pH 4.5, 25° C.
Lactic acid bacteria = settings: Part II, 1 g/l in apple juice pH 4.5, 25° C.
Thermophilic bacilli = settings: Part II, 1 g/l in apple juice pH 4.5, 25° C.
Acetic acid bacteria = settings: Part II, 1 g/l in apple juice pH 4.5, 25° C.
Clostridia = settings: Part II, 1 g/l in apple juice pH 4.5, 25° C.
[1] = sealed
Text: Salts prepared as in example 1 were dried, stored under the specified conditions without the addition of other substances and checked at regular intervals visually for discoloration: […]

[2] = 1 day after inoculation (2.7 × 10^4)
[3] = 3 days after inoculation (2.7 × 10^4)
[4] = 7 days after inoculation (2.7 × 10^4)
[5] = 14 days after inoculation (2.7 × 10^4)

Compound: C/C=C/C=C/C(=O)[O-].CC(=O)[O-].[Ca+2] [calcium acetate sorbate]
- Growth of Gram-negative bacteria (Gram-negative bacteria; 1 g/l in apple juice pH 4.5): substantially inhibited
- Number of surviving microorganisms per g of contaminated sample, Gram-negative bacteria (Gram-negative bacteria; [2]): 9.0 × 10^3 CFU/g
- Number of surviving microorganisms per g of contaminated sample, Gram-negative bacteria (Gram-negative bacteria; [3]): 3.2 × 10^3 CFU/g
- Number of surviving microorganisms per g of contaminated sample, Gram-negative bacteria (Gram-negative bacteria; [4]): 1.5 × 10^3 CFU/g
- Number of surviving microorganisms per g of contaminated sample, Gram-negative bacteria (Gram-negative bacteria; [5]): 4.2 × 10^4 CFU/g
- Number of surviving microorganisms per g of contaminated sample, Molds II (Molds II; 1 day after inoculation (2.5 × 10^4)): 4.4 × 10^3 CFU/g
- Number of surviving microorganisms per g of contaminated sample, Molds II (Molds II; 3 days after inoculation (2.5 × 10^4)): <100 CFU/g
- Number of surviving microorganisms per g of contaminated sample, Molds II (Molds II; 7 days after inoculation (2.5 × 10^4)): <10 CFU/g
- Number of surviving microorganisms per g of contaminated sample, Molds II (Molds II; 14 days after inoculation (2.5 × 10^4)): <10 CFU/g
- Number of surviving microorganisms per g of contaminated sample, Bacilli (Bacilli; 1 day after inoculation (3.3 × 10^4)): 2.5 × 10^3 CFU/g
- Number of surviving microorganisms per g of contaminated sample, Bacilli (Bacilli; 3 days after inoculation (3.3 × 10^4)): 1.7 × 10^3 CFU/g
- Number of surviving microorganisms per g of contaminated sample, Bacilli (Bacilli; 7 days after inoculation (3.3 × 10^4)): 1.7 × 10^3 CFU/g
- Number of surviving microorganisms per g of contaminated sample, Bacilli (Bacilli; 14 days after inoculation (3.3 × 10^4)): 1.4 × 10^3 CFU/g
- Number of surviving microorganisms per g of contaminated sample, Gram-positive bacteria (Gram-positive bacteria; 1 day after inoculation (2.1 × 10^4)): 2.5 × 10^4 CFU/g
- Number of surviving microorganisms per g of contaminated sample, Gram-positive bacteria (Gram-positive bacteria; 3 days after inoculation (2.1 × 10^4)): 6.2 × 10^3 CFU/g
- Number of surviving microorganisms per g of contaminated sample, Gram-positive bacteria (Gram-positive bacteria; 7 days after inoculation (2.1 × 10^4)): 2.7 × 10^3 CFU/g
- Number of surviving microorganisms per g of contaminated sample, Gram-positive bacteria (Gram-positive bacteria; 14 days after inoculation (2.1 × 10^4)): <10 CFU/g
- Number of surviving microorganisms per g of contaminated sample, Yeasts (Yeasts; 1 day after inoculation (2.6 × 10^4)): 1.3 × 10^4 CFU/g
- Number of surviving microorganisms per g of contaminated sample, Yeasts (Yeasts; 3 days after inoculation (2.6 × 10^4)): 3.4 × 10^3 CFU/g
- Number of surviving microorganisms per g of contaminated sample, Yeasts (Yeasts; 7 days after inoculation (2.6 × 10^4)): <100 CFU/g
- Number of surviving microorganisms per g of contaminated sample, Yeasts (Yeasts; 14 days after inoculation (2.6 × 10^4)): <10 CFU/g
- Number of surviving microorganisms per g of contaminated sample, Molds I (Molds I; 1 day after inoculation (2.2 × 10^4)): 3.7 × 10^3 CFU/g
- Number of surviving microorganisms per g of contaminated sample, Molds I (Molds I; 3 days after inoculation (2.2 × 10^4)): 5.0 × 10^2 CFU/g
- Number of surviving microorganisms per g of contaminated sample, Molds I (Molds I; 7 days after inoculation (2.2 × 10^4)): 1.0 × 10^2 CFU/g
- Number of surviving microorganisms per g of contaminated sample, Molds I (Molds I; 14 days after inoculation (2.2 × 10^4)): <100 CFU/g
- Number of surviving microorganisms per g of contaminated sample, Lactic acid bacteria (Lactic acid bacteria; [2]): 5.5 × 10^3 CFU/g
- Number of surviving microorganisms per g of contaminated sample, Lactic acid bacteria (Lactic acid bacteria; [3]): <100 CFU/g
- Number of surviving microorganisms per g of contaminated sample, Lactic acid bacteria (Lactic acid bacteria; [4]): <10 CFU/g
- Number of surviving microorganisms per g of contaminated sample, Lactic acid bacteria (Lactic acid bacteria; [5]): <10 CFU/g
- Number of surviving microorganisms per g of contaminated sample, Thermophilic bacilli (Thermophilic bacilli; 1 day after inoculation (1.3 × 10^4)): 2.3 × 10^3 CFU/g
- Number of surviving microorganisms per g of contaminated sample, Thermophilic bacilli (Thermophilic bacilli; 3 days after inoculation (1.3 × 10^4)): 1.1 × 10^3 CFU/g
- Number of surviving microorganisms per g of contaminated sample, Thermophilic bacilli (Thermophilic bacilli; 7 days after inoculation (1.3 × 10^4)): 1.0 × 10^2 CFU/g
- Number of surviving microorganisms per g of contaminated sample, Thermophilic bacilli (Thermophilic bacilli; 14 days after inoculation (1.3 × 10^4)): <10 CFU/g
- Number of surviving microorganisms per g of contaminated sample, Acetic acid bacteria (Acetic acid bacteria; 1 day after inoculation (2.8 × 10^4)): 2.5 × 10^4 CFU/g
- Number of surviving microorganisms per g of contaminated sample, Acetic acid bacteria (Acetic acid bacteria; 3 days after inoculation (2.8 × 10^4)): 6.5 × 10^3 CFU/g
- Number of surviving microorganisms per g of contaminated sample, Acetic acid bacteria (Acetic acid bacteria; 7 days after inoculation (2.8 × 10^4)): 1.7 × 10^5 CFU/g
- Number of surviving microorganisms per g of contaminated sample, Acetic acid bacteria (Acetic acid bacteria; 14 days after inoculation (2.8 × 10^4)): 1.6 × 10^5 CFU/g
- Number of surviving microorganisms per g of contaminated sample, Clostridia (Clostridia; 1 day after inoculation (2.9 × 10^4)): 7.0 × 10^2 CFU/g
- Number of surviving microorganisms per g of contaminated sample, Clostridia (Clostridia; 3 days after inoculation (2.9 × 10^4)): <100 CFU/g
- Number of surviving microorganisms per g of contaminated sample, Clostridia (Clostridia; 7 days after inoculation (2.9 × 10^4)): <10 CFU/g
- Number of surviving microorganisms per g of contaminated sample, Clostridia (Clostridia; 14 days after inoculation (2.9 × 10^4)): <10 CFU/g
- Preservative action against the microorganisms used (all microorganisms used; 1 g/l in apple juice pH 4.5, up to 14 days): acts well and persistently against all microorganisms used except for acetic acid bacteria and bacilli
- Preservative action compared with the single salts (all microorganisms used; same concentration, 1 g/l in apple juice pH 4.5): acts surprisingly better than calcium acetate (in particular against lactic acid bacteria, yeasts, molds and Gram-positive bacteria) or calcium sorbate (in particular against lactic acid bacteria) used alone
- Time after yellow-brown discoloration of a 1% strength aqueous solution ([1]; dark at 7° C.): >12 months />12 months
- Time after yellow-brown discoloration of the powder ([1]; dark at 7° C.): 12 months />12 months
- Time after yellow-brown discoloration of a 1% strength aqueous solution ([1]; dark at 25° C.): >12 months />12 months
- Time after yellow-brown discoloration of the powder ([1]; dark at 25° C.): 12 months />12 months
- Time after yellow-brown discoloration of a 1% strength aqueous solution ([1]; under sunlight at 7° C.): 12 months />12 months
- Time after yellow-brown discoloration of the powder ([1]; under sunlight at 7° C.): 12 months />12 months
- Time after yellow-brown discoloration of a 1% strength aqueous solution ([1]; under sunlight at 25° C.): 12 months />12 months
- Time after yellow-brown discoloration of the powder ([1]; under sunlight at 25° C.): 12 months />12 months
